{"source": "patent US20040044006A1", "about": "“Methods of use of quinolone compounds against pneumococcal and haemophilus bacteria” (priority 1999, published 2004)", "key": {"[1]": {"tested_on": "quinolone susceptible pneumococci (ciprofloxacin MICs ≦4.0 μg/ml)", "assay": "Agar dilution MICs of 207 quinolone susceptible pneumococcal strains", "assay_type": "cell-based, Streptococcus pneumoniae", "details": "agar dilution", "description": "All susceptible, and some intermediate and resistant strains, were recent U.S. isolates. The remainder of intermediate and resistant strains were isolated in South Africa, Spain, France, Central and Eastern Europe, and Korea. […] Additionally these strains were tested for mutations in parC, gyrA, parE, and gyrB (Pan, et al., Antimicrob. Agents Chemother. 40:2321-2326, 1996) and for efflux mechanism (Brenwald, et al., Antimicrob. Agents Chemother. 42:2032-2035, 1998). For time-kill studies, 4 penicillin susceptible, 4 intermediate and 4 resistant strains (2 quinolone resistant) were tested, while for PAE studies 5 quinolone susceptible and 1 resistant strains were studied.\n(§1) Agar dilution methodology was performed on 234 strains as described previously (M. R. Jacobs, Clin. Infect. Dis. 15:119-127, 1992; Jacobs, et al., Rev. Med. Microbiol. 6:77-93, 1995), using Mueller-Hinton agar (BBL Microbiology Systems, Cockeysville, Md.) supplemented with 5% sheep blood. Broth MICs for 12 strains tested by time-kill and 6 tested by PAE were performed according to NCCLS recommendations (Methods for Dilution Antimicrobial Susceptibility Tests for Bacteria that Grow Aerobically, 3rd Edition, NCCLS, Villanova, Pa.) using cation-adjusted Mueller-Hinton broth with 5% lysed defibrinated horse blood. Standard quality control strains, including Streptococcus pneumoniae ATCC 49619, were included in each run of agar and broth dilution MICs."}, "pneumococcal strains": {"tested_on": "pneumococcal strains", "assay": "Microbroth dilution MICs of strains tested by time-kill and PAE", "assay_type": "cell-based", "details": "Streptococcus pneumoniae, read-out: Microdilution MIC", "description": "as §1"}, "[2]": {"tested_on": "pneumococci (5 quinolone susceptible and 1 resistant strains)", "assay": "Post-antibiotic effect (PAE) testing", "assay_type": "cell-based, Streptococcus pneumoniae", "description": "The post-antibiotic effect (PAE) (Craig, et al., V. Lorian (ed.) Antibiotics in Laboratory Medicine, Williams and Wilkins, Baltimore, pages 296-399, 1996) was determined by the viable plate count method, using Mueller-Hinton broth (MHB) supplemented with 5% lysed horse blood when testing pneumococci. […] Additionally, the one quinolone resistant strain was exposed at quinolone concentrations 5×MIC. Tubes containing 5 ml broth with antibiotic were inoculated with approximately 5×10^6 cfu/ml. Growth controls with inoculum but no antibiotic were included with each experiment. Tubes were placed in a shaking water bath at 35° C. for 1 h. At the end of the exposure period, cultures were diluted 1:1000 to remove antibiotic.\nViability counts were determined before exposure and immediately after dilution (0 h), and then every 2 h until tube turbidity reached a #1 McFarland standard. Inocula were prepared by suspending growth from an overnight blood agar plate in broth. The broth was incubated at 35° C. for 2-4 h in a shaking water bath until turbidity matched a #1 McFarland standard, and checked for viability by plate counts (Spangler, et al., Antimicrob. Agents Chemother. 41:2173-9176, 1997; Spangler, et al., Antimicrob. Agents Chemother. 42:1253-1255, 1998).\nThe PAE was defined as PAE=T-C; T=time required for viability counts of an antibiotic-exposed culture to increase by 1 log10 above counts immediately after dilution; C=corresponding time for growth control. For each experiment, viability counts (log10 cfu/ml) were plotted against time, and results expressed as the mean of two separate assays±S D (Craig, et al., V. Lorian (ed), Antibiotics in Laboratory Medicine, Williams and Wilkins, Baltimore, pages 296-329, 1996)."}, "[3]": {"tested_on": "quinolone resistant pneumococci", "assay": "Determination of efflux mechanism: MICs in the presence and absence of reserpine", "assay_type": "cell-based, Streptococcus pneumoniae", "description": "MICs were determined in the presence and absence of 10 μg/ml of reserpine (Sigma Chemicals, St. Louis, Mo.) as known in the art.\nMICs were determined in the presence and absence of […] of reserpine (Sigma Chemicals, St. Louis, Mo., USA) as described previously (Brenwald, et al., Antimicrob. Agents Chemother. 42:2039-2035, 1998 and Davies, et al., Antimicrob. Agents Chemother. 43:1177-1182S, 1999)."}, "[4]": {"tested_on": "quinolone-resistant Haemophilus influenzae strains", "assay": "Microdilution MIC determination in HTM for quinolone-resistant Haemophilus influenzae strains", "assay_type": "cell-based", "details": "9 quinolone-resistant Haemophilus influenzae strains", "description": "Inocula were prepared from chocolate agar plates incubated for a full 24 hours by the direct colony suspension method as follows: In a tube of Mueller-Hinton broth (Difco), an organism suspension was made to a density of a 0.5 McFarland standard (1×10^8 CFU/ml). The latter inoculum was diluted in sterile saline such that final organisms suspensions in trays yielded colony counts of 3-8×10^5 CFU/ml. Frozen microdilution trays were obtained from MicroMedia Systems, Inc. (Cleveland, Ohio, USA). Each tray contained all antimicrobials prepared in freshly made HTM. Wells were inoculated with 100 μl suspensions and incubated in ambient air at 35° C. for 20-24 hours. The lowest drug concentration showing no growth was read as the MIC. Standard quality control strains, including H. influenzae ATCC 49766, H. influenzae ATCC 49247, Staphylococcus aureus ATCC 29213 and Escherichia coli ATCC 25922 were included with each run."}}, "note": "Read-outs that look alike come from different tables or passages of the source.", "data": [{"smiles": "CC[C@H]1OC(=O)[C@H](C)[C@@H](O[C@H]2C[C@@](C)(OC)[C@@H](O)[C@H](C)O2)[C@H](C)[C@@H](O[C@@H]2O[C@H](C)C[C@H](N(C)C)[C@H]2O)[C@](C)(O)C[C@@H](C)CN(C)[C@H](C)[C@@H](O)[C@]1(C)O", "note": "[Azithromycin, azithromycin]", "values": [{"measurement": "MIC90", "setting": "[1]; Streptococcus pneumoniae, Penicillin I strains, read-out: MIC90", "result": "> 128", "unit": "µg/mL"}, {"measurement": "MIC50", "setting": "[1]; Streptococcus pneumoniae, Penicillin R strains", "result": 4, "unit": "µg/mL"}, {"measurement": "MIC90", "setting": "[1]; Streptococcus pneumoniae, Penicillin R strains, read-out: MIC90", "result": "> 128", "unit": "µg/mL"}, {"measurement": "MIC90", "setting": "[1]; Streptococcus pneumoniae, Penicillin S strains, read-out: MIC90", "result": 0.5, "unit": "µg/mL"}, {"measurement": "MIC90", "setting": "[1]; Penicillin I strains", "result": ">128.0", "unit": "µg/mL"}, {"measurement": "MIC90", "setting": "[1]; Penicillin R strains", "result": ">128.0", "unit": "µg/mL"}, {"measurement": "MIC", "setting": "pneumococcal strains; strain 1 (S) penicillin susceptible", "result": 0.008, "unit": "µg/mL"}, {"measurement": "MIC", "setting": "pneumococcal strains; strain 2 (S) penicillin susceptible", "result": 0.06, "unit": "µg/mL"}, {"measurement": "MIC", "setting": "pneumococcal strains; strain 3 (S) penicillin susceptible, quinolone-resistant", "result": "> 64", "unit": "µg/mL"}, {"measurement": "MIC", "setting": "pneumococcal strains; strain 5 (I) penicillin intermediate", "result": "> 64", "unit": "µg/mL"}, {"measurement": "MIC", "setting": "pneumococcal strains; strain 6 (I) penicillin intermediate", "result": 0.03, "unit": "µg/mL"}, {"measurement": "MIC", "setting": "pneumococcal strains; strain 9 (R) penicillin resistant", "result": "> 64", "unit": "µg/mL"}, {"measurement": "MIC", "setting": "pneumococcal strains; strain 10 (I)", "result": "> 64", "unit": "µg/mL"}, {"measurement": "MIC", "setting": "pneumococcal strains; strain 12 (R) penicillin resistant", "result": "> 64", "unit": "µg/mL"}, {"measurement": "PAE for non-quinolone compounds", "setting": "[2]; 10×MIC, range over strains", "result": "1.3 to 3.0", "unit": "h"}]}, {"smiles": "O=C(O)c1cn(C2CC2)c2cc(N3CCNCC3)c(F)cc2c1=O", "note": "[Ciprofloxacin, ciprofloxacin]", "values": [{"measurement": "number of strains with lower MICs in the presence of reserpine", "setting": "[3]; of 28 quinolone resistant strains, 10 μg/ml reserpine", "result": 23, "unit": "strains"}, {"measurement": "Number of dilutions decrease after incubation with reserpine", "setting": "[3]; strain 1", "result": 2, "unit": "x X"}, {"measurement": "Number of dilutions decrease after incubation with reserpine", "setting": "[3]; strain 2", "result": 8, "unit": "x X"}, {"measurement": "Number of dilutions decrease after incubation with reserpine", "setting": "[3]; strain 6", "result": 2, "unit": "X"}, {"measurement": "Number of dilutions decrease after incubation with reserpine", "setting": "[3]; strain 8", "result": 2, "unit": "X"}, {"measurement": "Number of dilutions decrease after incubation with reserpine", "setting": "[3]; strain 9", "result": 8, "unit": "X"}, {"measurement": "Number of dilutions decrease after incubation with reserpine", "setting": "[3]; strain 10", "result": 2, "unit": "X"}, {"measurement": "Number of dilutions decrease after incubation with reserpine", "setting": "[3]; strain 11", "result": 16, "unit": "X"}, {"measurement": "Number of dilutions decrease after incubation with reserpine", "setting": "[3]; strain 13", "result": 2, "unit": "X"}, {"measurement": "Number of dilutions decrease after incubation with reserpine", "setting": "[3]; strain 18", "result": 2, "unit": "X"}, {"measurement": "Number of dilutions decrease after incubation with reserpine", "setting": "[3]; strain 19", "result": 2, "unit": "X"}, {"measurement": "Number of dilutions decrease after incubation with reserpine", "setting": "[3]; strain 20", "result": 2, "unit": "X"}, {"measurement": "Number of dilutions decrease after incubation with reserpine", "setting": "[3]; strain 21", "result": 2, "unit": "X"}, {"measurement": "Number of dilutions decrease after incubation with reserpine", "setting": "[3]; strain 22", "result": 2, "unit": "X"}, {"measurement": "Number of dilutions decrease after incubation with reserpine", "setting": "[3]; strain 23", "result": 8, "unit": "X"}, {"measurement": "Number of dilutions decrease after incubation with reserpine", "setting": "[3]; strain 24", "result": 2, "unit": "x X"}, {"measurement": "Number of dilutions decrease after incubation with reserpine", "setting": "[3]; strain 28", "result": 8, "unit": "x X"}, {"measurement": "PAE", "setting": "[2]; 5×MIC, quinolone resistant strain", "result": 3.7, "unit": "h"}, {"measurement": "PAE", "setting": "[2]; 10×MIC for 1 h, range over 5 quinolone susceptible strains", "result": "0.5 to 1.5", "unit": "h"}, {"measurement": "PAE", "setting": "[2]; 10×MIC, quinolone resistant strain", "result": 6.3, "unit": "h"}, {"measurement": "MIC50", "setting": "[4]", "result": 1, "unit": "µg/mL"}, {"measurement": "MIC Range", "setting": "[4]", "result": "0.25 to 8.0", "unit": "µg/mL"}]}]}
